Consider 3 compounds from patent US20050171084A1, “Methods of treatment with lxr modulators” (priority 2002, published 2005).

Assay [1] deals with rat pheochromocytoma cells. The conditions noted are these: Schmidt, et al. (19); cited from earlier work.
The next assay deals with Hippocampal neurons. Description: Neurite outgrowth in hippocampal neurons. Type of assay: cell-based, rat. The conditions noted are these: HC neurons, 48 hours, SEM in parentheses. Here is the method: Hippocampal neurons: The hippocampi of gestational day 18 rat embryos were dissected out, incubated in trypsin (0.08%, 30 min at 37° C.) and dissociated mechanically (16). Hippocampal cells were resuspended in neurobasal medium supplemented with B27, anti-oxidants, 1 mM glutamine, 25 μM glutamate, 1 mM pyruvate. For outgrowth assays, cells were plated at a density of 3000 cells/well into 96 well dishes that had previously been coated with poly-D-lysine followed by 10% FCS and cultured for 48 hours.
The test compound was solubilised in DMSO and added to culture medium at time of cell plating at a dilution of 1:1000. Vehicle only (1:1000) was added to culture medium of untreated controls. Cells were fixed with 4% paraformaldehyde for 1 hour on ice, washed with PBS and stained using Coomassie. Assays were quantified using a KS300 image analysis system (Imaging Associates, UK). For each cell measured, the length from the edge of the cell to the end of the longest neurite was measured for 100 cells/well for each treatment in triplicate. All data are means and SEM pooled from three independent experiments. Results are expressed as a percentage of the length of neurites of cells treated with vehicle alone.

A further assay deals with T1, LXRβ protein (Homo sapiens, UniProt P55055).
T1 sequence (P55055 1-460): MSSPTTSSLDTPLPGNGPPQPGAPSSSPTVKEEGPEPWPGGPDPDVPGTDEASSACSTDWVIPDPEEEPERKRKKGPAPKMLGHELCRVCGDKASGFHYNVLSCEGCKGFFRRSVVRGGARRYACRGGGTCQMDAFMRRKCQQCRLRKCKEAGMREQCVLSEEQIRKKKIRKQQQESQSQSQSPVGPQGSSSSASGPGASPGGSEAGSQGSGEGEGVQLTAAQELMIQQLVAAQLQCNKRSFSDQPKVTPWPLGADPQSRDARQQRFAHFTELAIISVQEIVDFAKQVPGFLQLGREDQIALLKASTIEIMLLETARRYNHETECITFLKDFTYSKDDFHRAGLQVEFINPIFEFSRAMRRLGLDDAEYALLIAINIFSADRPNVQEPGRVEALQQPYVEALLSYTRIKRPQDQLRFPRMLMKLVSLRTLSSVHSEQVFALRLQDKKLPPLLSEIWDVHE
The conditions noted are these: 1 μM; over a background reading of 10000 fluorescence units; cited from earlier work.

Regarding `CCCCCCCCCCCCCCOc1ccc(C(=O)O)o1` [5-tetradecyloxy-2-furancarboxylic acid], the neuronal differentiation result in assay [1] is “induced neuronal differentiation”.
Turning to `CC(C)CC[C@@H](O)[C@@H](C)[C@H]1CC[C@H]2[C@@H]3CC=C4C[C@@H](O)CC[C@]4(C)[C@H]3CC[C@]12C` [22(R) hydroxychol., 22(R)-hydroxycholesterol, reference compound], the neuronal differentiation entry in assay [1] is reported as “induced neuronal differentiation”. In addition, the “length of longest neurite, percentage of cells treated with vehicle alone” value in the assay with Hippocampal neurons (0.3 μm test compound) is on record as 115.9 (6.02) %; in the assay on Hippocampal neurons (1.0 μm test compound) it was 116 (7.45) %; in the assay on Hippocampal neurons (3.0 μm test compound), 129.9 (4.12) %; in the assay with Hippocampal neurons (10.0 μm test compound), 127.9 (6.18) %.
As for `C[C@H](CC[C@@H]1OC1(C)C)[C@H]1CC[C@H]2[C@@H]3CC=C4C[C@@H](O)CC[C@]4(C)[C@H]3CC[C@]12C` [24(S), 25-epoxycholesterol], the fluorescence reading on LXRβ protein is recorded as 20000 fluorescence units.
